{
  "source": "patent US5212179A",
  "about": "“Piperidine derivatives” (John Wyeth and Brother Limited, priority 1980, dated 1993)",
  "key": {"[1]": {"tested_on": "p-chloroamphetamine (pCA) induced hyperactivity", "assay": "Inhibition of p-chloroamphetamine (pCA) induced hyperactivity in mice", "type": "in vivo", "details": "Mus musculus, po, female mice, 50 mg/kg po, pCA 20 mg/kg ip, 10-30 minutes post pCA", "method": "The following test procedure was used to test for ability to inhibit p-chloroamphetamine induced hyperactivity.\nThree groups of 4 female mice (20-24 g) receive the test compounds (50 mg/kg po) and a fourth group the requisite volume of vehicle. Thirty minutes later all the animals are given 20 mg/kg p-chloroamphetamine (pCA) ip. The grouped mice are placed immediately in square plastic cages in activity monitors and their motor activity recorded over the period 10-30 minutes post pCA. This procedure is repeated three more times so that four groups of mice are used per treatment and each activity monitor is used with all treatments in turn. The inhibition of pCA induced hyperactivity is calculated thus: [formula] where C=mean activity of control groups 10-30 minutes post pCA.\nT=mean activity of treated groups 10-30 minutes post pCA.\nThis test is used as an in vivo screen for detection of 5-hydroxytryptamineuptake inhibitors.\nCompounds giving >50% inhibition are considered of special interest. In such a test the following compounds were particularly active: […]"}, "[2]": {"tested_on": "neuronal uptake of 5-hydroxytryptamine into slices of cerebral cortex", "assay": "Inhibition of 5-hydroxytryptamine (5-HT) uptake in brain slices", "type": "biochemical", "details": "rat cerebral cortex slices, relative to imipramine", "method": "Compounds of formula I were tested for ability to inhibit 5-hydroxytryptamine (5-HT) uptake in brain slices using the following procedure:\nConcentration-response curves for the test compound and for the standard agent, imipramine, are obtained. The potency of the test compound is expressed in proportion to that of imipramine. Thus, the potency ratio for the test compound [formula]"}, "[3]": {"tested_on": "5-hydroxy-L-tryptophan (5-HTP) induced behavioural syndrome", "assay": "Potentiation of 5-HTP induced behavioural syndrome, dose/response study in mice", "type": "in vivo", "details": "Mus musculus, po, 5-HTP 80 mg/kg i.p.", "method": "(§1) Thus, this test can be used as an indication of in vivo 5-HT uptake inhibition.\na) Dose/response study in mice\nGroups of 12 (2 subgroups of 6) female mice (18-22g) were used per dose, each group being housed in a separate cage for the duration of the experiment. Mice were dosed p.o. with either test compound or vehicle (0.5% HPMC) and 30 minutes later received a threshold dose of 5-HTP (80 mg/kg i.p.) and were placed in perspex cylinders (12\" diameter).\nThe dose that produced the syndrome in 50% of the mice was calculated using the method of Litchfield and Wilcoxon, […]"}, "[4]": {"tested_on": "5-hydroxy-L-tryptophan (5-HTP) induced behavioural syndrome", "assay": "Potentiation of 5-HTP induced behavioural syndrome, dose/response study in rats", "type": "in vivo", "details": "Rattus norvegicus, ip, 5-HTP 70 mg/kg i.p.", "method": "as §1\nb) Dose/Response study in rats\nGroups of 6 male rats (150 g) were dosed with test compound suspended in HPMC. Thirty minutes later 5-HTP (70 mg/kg 5 i.p.) was given and the number of signs/rat recorded between 20 and 35 minutes post 5-HTP. Linear regression analysis of the results was performed and the ED50 calculated from this."}, "[5]": {"tested_on": "uptake of 5-HT into rat brain synaptosomes", "assay": "Inhibition of 5-HT uptake into rat brain synaptosomes", "type": "biochemical, male Sprague Dawley rats", "method": "(§2) The test procedure involved obtaining synaptosomal preparations from male Sprague Dawley rats according to the method of Grey and Whittaker* as modified by Wood and Wyllie.** Aliquots of the synaptosomal preparation were then incubated with tritrated noradrenaline (NA) or 5-HT at a temperature of 37° C. for 4 minutes. The active synaptosomal accumulation of labelled substrate was measured by filtration and scintillation counting. The effect at a range of concentrations of test compound enabled IC50 values and selectivity ratios to be calculated.\n(§3) * Grey and Whittaker,--J. Anat. 96 79 (1962)\n(§4) ** Wood and Wyllie, J. Neurochemistry, 37, 795 (1981)"}, "[6]": {"tested_on": "uptake of ^3 H noradrenaline into rat brain synaptosomes", "assay": "Inhibition of 3H noradrenaline uptake into rat brain synaptosomes", "type": "biochemical, male Sprague Dawley rats", "details": "37° C., 4 minutes, read-out: IC50 NA uptake", "method": "as §2, §3, §4"}, "[7]": {"tested_on": "p-chloroamphetamine (pCA)-induced stereotypy", "assay": "Inhibition of p-chloroamphetamine (pCA)-induced stereotypy in rats", "type": "in vivo, male Sprague-Dawley rats", "details": "for ED50: Rattus norvegicus, po, 90 minutes before pCA 10 mg/kg i.p., results for succinate salt corrected for amount of active material, read-out: ED50 (dose required to produce 50% inhibition of pCA induced stereotypy); for ED50 / antagonism of pCA-induced stereotypy (in words): rats, p.o.; for antagonism of pCA-induced stereotypy (in words): 5 dose levels", "method": "Representative compounds of formula IA were tested for their ability to inhibit pCA induced syndrome in rats by the standard procedure described below:\nInhibition of p-chloroamphetamine (pCA)-induced stereotypy\nVehicle or drug (5 dose levels) were administered p.o. to six groups of 6-8 male Sprague-Dawley rats (300-400 g) followed, 90 minutes later, by pCA (10 mg/kg i.p.). The animals were then placed in individual observation chambers and, 30 minutes after pCA administration, the intensity of the pCA-induced 5-HT syndrome was assessed according to the following scoring system: […]\nTherefore, the maximum score for each animal was 10.\nThe inhibition of pCA induced stereotypy is calculated for each dose level as follows: [formula] where C=control group total score at 30 minutes post pCA.\nT=group total score of treated group at 30 minutes post pCA.\nFor each dose a % effect is calculated.\nThe results obtained from the tests using 5 different dose levels of the drug allow the ED50 value (i.e. the dose required to produce 50% inhibition of pCA induced stereotypy) to be calculated.\nThe test was carried out using the free bases for compound C. Compound B was tested in the form of the succinate salt and the results corrected for amount of active material."}, "[8]": {"tested_on": "5-hydroxy-L-tryptophan induced behavioural syndrome", "assay": "Potentiation of 5-hydroxytryptophan (5-HTP)-induced behaviour in rats", "type": "in vivo, male Sprague-Dawley rats", "details": "Rattus norvegicus, po, 5-HTP 50 mg/kg s.c., citrate salt, corrected for amount of base", "method": "The compound (C) was also tested for its ability to potentiate 5-hydroxy-L-tryptophan induced behavioural syndrome in rats. The test procedure is described below\nPotentiation of 5-hydroxytryptophan (5-HTP)-induced behaviour\nGroups of 10 male Sprague-Dawley rats (310-360 g) were dosed p.o. with vehicle or drugs. Ninety minutes later 5-HTP (50 mg/kg s.c.) was administered and the animals placed in individual observation chambers (peripheral decarboxylation was prevented by 25 mg/kg i.p. carbidopa administered 60 minutes before 5-HTP). Head shakes were counted over the period 30-45 minutes after 5-HTP and the intensity of the 5-HT syndrome was scored immediately afterwards using the system described for the pCA procedure above. Percentage potentiation of syndrome was calculated as follows: […]\nPercentage potentiation was calculated from the following: [formula]"}},
  "data": [
    {"smiles": "O=C(NC(=O)c1ccccc1)NC1CCN(Cc2ccc3ccccc3c2)CC1", "note": "[Example 1, 1-Benzoyl-3-[1-(naphth-2-ylmethyl)piperid-4-yl]urea]", "values": [
      {"measurement": "inhibition in vivo at 50 mg/kg", "setting": "[1]", "result": 67.5, "unit": "%"},
      {"measurement": "potency ratio (imipramine=1.0)", "setting": "[2]", "result": 8.8},
      {"measurement": "ED50", "setting": "[3]", "result": 7.2, "unit": "mg/kg"},
      {"measurement": "ED50", "setting": "[4]", "result": 5.3, "unit": "mg/kg"},
      {"measurement": "Selectivity Ratio", "setting": "[5]; 5-HT uptake relative to NA uptake", "result": 455},
      {"measurement": "IC50", "setting": "[5]; 37° C., 4 minutes", "result": 0.044, "unit": "µM"},
      {"measurement": "IC50", "setting": "[6]", "result": 20, "unit": "µM"}
    ]},
    {"smiles": "O=C(NC(=O)c1ccccc1)NC1CCN(Cc2cccc3ccccc23)CC1", "note": "[Example 2, 1-Benzoyl-3-[1-(naphth-1-ylmethyl)piperid-4-yl]urea]", "values": [
      {"measurement": "inhibition in vivo at 50 mg/kg", "setting": "[1]", "result": 56.4, "unit": "%"}
    ]},
    {"smiles": "CC(C)c1ccc(CN2CCC(NC(=O)NC(=O)c3ccccc3)CC2)cc1", "note": "[Example 3, 1-Benzoyl-3-[1-(4-isopropylbenzyl)piperid-4-yl]urea]", "values": [
      {"measurement": "inhibition in vivo at 50 mg/kg", "setting": "[1]", "result": 49, "unit": "%"}
    ]},
    {"smiles": "Cc1ccc(CN2CCC(NC(=O)NC(=O)c3ccccc3)CC2)cc1C", "note": "[Example 6, 1-Benzoyl-3-[1-(3,4-dimethylbenzyl)piperid-4-yl]urea]", "values": [
      {"measurement": "inhibition in vivo at 50 mg/kg", "setting": "[1]", "result": 68.9, "unit": "%"}
    ]},
    {"smiles": "O=C(NC(=O)c1ccccc1)NC1CCN(Cc2ccc3c(c2)CCCC3)CC1", "note": "[Example 14, 1-Benzoyl-3-[1-(5,6,7,8-tetrahydro-naphth-2-ylmethyl)piperid-4-yl]urea]", "values": [
      {"measurement": "inhibition in vivo at 50 mg/kg", "setting": "[1]", "result": 69.4, "unit": "%"}
    ]},
    {"smiles": "CCc1ccc(CN2CCC(NC(=O)NC(=O)c3ccccc3)CC2)cc1", "note": "[Example 15, 1-Benzoyl-3-[1-(4-ethylbenzyl)piperid-4-yl]urea]", "values": [
      {"measurement": "inhibition in vivo at 50 mg/kg", "setting": "[1]", "result": 72.9, "unit": "%"}
    ]},
    {"smiles": "O=C(NC(=O)c1ccccc1)NC1CCN(Cc2ccc3c(c2)CCC3)CC1", "note": "[Example 20, 1-Benzoyl-3-[1-(indan-5-ylmethyl)-piperid-4-yl]urea]", "values": [
      {"measurement": "inhibition in vivo at 50 mg/kg", "setting": "[1]", "result": 59.3, "unit": "%"}
    ]},
    {"smiles": "CC(c1ccc2ccccc2c1)N1CCC(NC(=O)NC(=O)c2ccccc2)CC1", "note": "(centres unmarked) [Example 21, 1-Benzoyl-3-[1-(1-(naphth-2-yl)ethyl)-piperid-4-yl]urea]", "values": [
      {"measurement": "inhibition in vivo at 50 mg/kg", "setting": "[1]", "result": 71.7, "unit": "%"}
    ]},
    {"smiles": "O=C(NC(=O)c1cccnc1)NC1CCN(Cc2ccc3cc(F)ccc3c2)CC1", "note": "[Example 62, N[[[1-[(6-Fluoro-2-naphthalenyl)methyl]-4-piperidinyl]amino]carbonyl]-3-pyridinecarboxamide]", "values": [
      {"measurement": "inhibition of syndrome", "setting": "[7]; At 50 mg/kg", "result": 99, "unit": "%"},
      {"measurement": "ED50", "setting": "[7]", "result": 2.5, "unit": "mg/kg"},
      {"measurement": "antagonism of pCA-induced stereotypy (in words)", "setting": "[7]", "result": "antagonised pCA-induced stereotypy in a dose-dependent manner"},
      {"measurement": "ED50", "setting": "[8]", "result": 5, "unit": "mg/kg"}
    ]},
    {"smiles": "O=C(NC(=O)c1ccncc1)NC1CCN(Cc2ccc3cc(F)ccc3c2)CC1", "note": "[Example 63, N-[[[1-[(6-Fluoro-2-naphthalenyl)methyl]-4-piperidinyl]amino]carbonyl]-4-pyridinecarboxamide]", "values": [
      {"measurement": "ED50", "setting": "[7]", "result": 3.8, "unit": "mg/kg"},
      {"measurement": "antagonism of pCA-induced stereotypy (in words)", "setting": "[7]", "result": "antagonised pCA-induced stereotypy in a dose-dependent manner"}
    ]},
    {"smiles": "CN(C)CCCN1c2ccccc2CCc2ccc(Cl)cc21", "note": "[clomipramine, reference compound]", "values": [
      {"measurement": "ED50", "setting": "[3]", "result": 18, "unit": "mg/kg"},
      {"measurement": "ED50", "setting": "[4]", "result": 39.2, "unit": "mg/kg"}
    ]},
    {"smiles": "CN(C)CCCN1c2ccccc2CCc2ccccc21", "note": "[imipramine, reference compound]", "values": [
      {"measurement": "potency ratio (imipramine=1.0)", "setting": "[2]", "result": 1.0}
    ]}
  ]
}
